The numbers were not newly measured in US20080287507A1, “Nicotine containing toiletry waters” (priority 2007, published 2008), which cites them from elsewhere.

The conditions of series [1]: smoking a cigarette.

For the molecule `CN1CCCC1c1cccnc1` (centres unmarked) [Nicotine, 3-(1-methyl-2-pyrrolidinyl)-pyridine], the “single dose that may kill an adult” value is “Approximately 40 milligrams”. In series [1], the “time for nicotine to reach the brain after inhalation” value is listed as “around ten”.
